The results in this text go back to PubChem BioAssay (NCI).

Test systems include OVCAR-8 ovarian; LOX IMVI melanoma; SF-295 CNS; SK-MEL-2 melanoma; SF-539 CNS; OVCAR-4 ovarian; UACC-62 melanoma; UO-31 renal; DU-145 prostate.
Holding throughout (experiment): growth of human tumour cells (NCI), 48 h

The structures appear in SMILES notation.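 96-well plates; 48 h exposure; 5 concentrations. Endpoints by linear interpolation between flanking doses. Not reached: highest tested concentration assigned. Abbreviation: GI50, concentration required for 50% inhibition of growth. TGI marks complete inhibition of growth.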 Where only a bound is given, the exact number is not on record here.

`CC1CCC2(NC1)OC1CC3[C@@H]4CC=C5C=CCC[C@]5(C)C4CC[C@]3(C)C1C2C` (stereo partly specified): the TGI in the experiment with OVCAR-8 ovarian came out at 48.1 µM; with LOX IMVI melanoma, 33.6 µM; in the experiment with SF-295 CNS, 52.8 µM; with SK-MEL-2 melanoma, 35.2 µM; in the experiment on SF-539 CNS it was 43.2 µM; with OVCAR-4 ovarian, 51 µM. The values for the TGI with UACC-62 melanoma and with UO-31 renal were 42.5 µM and 68.7 µM, respectively.
With `Nc1ccc(-c2nc3ccccc3[nH]2)c(O)c1`, the GI50 in the experiment with OVCAR-8 ovarian was 42.3 µM; in the experiment with LOX IMVI melanoma, 40.8 µM; with SF-295 CNS, 26.5 µM; with SK-MEL-2 melanoma, more than 100 µM; in the experiment with SF-539 CNS, 17.3 µM; with UACC-62 melanoma, 25.2 µM. The GI50 was 38.9 µM with DU-145 prostate and 43.8 µM with UO-31 renal. In addition, the TGI with OVCAR-8 ovarian is more than 100 µM; in the experiment with LOX IMVI melanoma it was more than 100 µM; with SF-295 CNS, 63.4 µM; with SK-MEL-2 melanoma it was more than 100 µM; in the experiment with SF-539 CNS, 53.1 µM; with UACC-62 melanoma, 95.5 µM. In addition, the TGI in the experiment on DU-145 prostate and in the experiment on UO-31 renal was more than 100 µM in each case.
Take `CNS(=O)(=O)NN(C)S(=O)(=O)c1ccc(Cl)cc1`: the TGI in the experiment with OVCAR-8 ovarian, with LOX IMVI melanoma, with SF-295 CNS, with SK-MEL-2 melanoma, in the experiment on SF-539 CNS and in the experiment with OVCAR-4 ovarian was more than 100 µM each time. In addition, the TGI with UACC-62 melanoma and in the experiment with UO-31 renal was more than 100 µM each time.
As for `CC1=C(C)CC2(SC1)C(=O)c1ccccc1C2=O`, the TGI with OVCAR-8 ovarian, in the experiment with LOX IMVI melanoma, in the experiment with SF-295 CNS, in the experiment on SK-MEL-2 melanoma, in the experiment on SF-539 CNS and with OVCAR-4 ovarian was more than 100 µM in each case. Besides, the TGI with UACC-62 melanoma and in the experiment with UO-31 renal was more than 100 µM in each case.
Turning to `O=C(CC1(O)C(=O)Nc2ccc(Br)cc21)c1ccc(Cl)cc1` (stereo unspecified), the TGI in the experiment with OVCAR-8 ovarian was more than 100 µM; in the experiment with LOX IMVI melanoma it was 38.2 µM; with SF-295 CNS it was more than 100 µM; with SK-MEL-2 melanoma it was more than 100 µM; with SF-539 CNS, more than 100 µM; with OVCAR-4 ovarian it was more than 100 µM. For the same compound, the TGI with UACC-62 melanoma and with UO-31 renal was more than 100 µM throughout.
For `NS(=O)(=O)c1ccc(C2C3=C(CCCC3=O)OC3=C2C(=O)c2ccccc2C3=O)cc1` (stereo unspecified), the GI50 was 0.136 µM with LOX IMVI melanoma; 1.57 µM with SF-295 CNS; 0.604 µM in the experiment with SK-MEL-2 melanoma; 0.277 µM in the experiment on SF-539 CNS; 0.19 µM in the experiment on OVCAR-4 ovarian; 0.24 µM with UACC-62 melanoma. Further, the results for the GI50 in the experiment with DU-145 prostate and in the experiment on UO-31 renal were 0.74 µM and 1.55 µM, respectively. In addition, the TGI in the experiment on LOX IMVI melanoma was 1.04 µM; with SF-295 CNS, 3.31 µM; with SK-MEL-2 melanoma, 2.38 µM; in the experiment on SF-539 CNS it was 0.761 µM; in the experiment on OVCAR-4 ovarian, 0.824 µM; with UACC-62 melanoma, 0.567 µM. Besides, the TGI stood at 1.99 µM in the experiment with DU-145 prostate and 2.92 µM with UO-31 renal.
Regarding `O=c1[nH]c(=O)n(C2CC(O)C(CO)O2)cc1C(OCC(F)(F)F)OCC(F)(F)F` (stereo unspecified), the TGI with OVCAR-8 ovarian, with LOX IMVI melanoma, in the experiment on SF-295 CNS, with SK-MEL-2 melanoma, in the experiment with SF-539 CNS and with OVCAR-4 ovarian was more than 100 µM throughout. The TGI in the experiment on UACC-62 melanoma and in the experiment on UO-31 renal was more than 100 µM throughout.
As to `CN(C)/C=C/c1nnnn1-c1ccc(Cl)cc1`, the GI50 with OVCAR-8 ovarian is 11.2 µM; in the experiment on LOX IMVI melanoma, 21.7 µM; with SF-295 CNS, 19 µM; with SK-MEL-2 melanoma, 13.2 µM; in the experiment with SF-539 CNS, 16.5 µM; in the experiment on OVCAR-4 ovarian, 28.2 µM. Also, the GI50 in the experiment on UACC-62 melanoma was 8.22 µM; in the experiment with DU-145 prostate it was 14.2 µM; with UO-31 renal, 23.5 µM. For the same compound, the TGI with OVCAR-8 ovarian is 64.4 µM; in the experiment with LOX IMVI melanoma, more than 100 µM; in the experiment on SF-295 CNS, 36.7 µM; with SK-MEL-2 melanoma it was more than 100 µM; in the experiment with SF-539 CNS it was 44.4 µM; in the experiment with OVCAR-4 ovarian, 80.4 µM. Besides, the TGI in the experiment with UACC-62 melanoma was 31.4 µM; in the experiment with DU-145 prostate, 64.3 µM; with UO-31 renal, 84.8 µM.
For the compound `CCOC(=O)C(=O)C1C(=O)Nc2ccccc21` (stereo unspecified), the TGI in the experiment with OVCAR-8 ovarian, in the experiment on LOX IMVI melanoma, with SF-295 CNS, with SK-MEL-2 melanoma, in the experiment on OVCAR-4 ovarian and in the experiment with UACC-62 melanoma was more than 100 µM throughout. In the experiment with UO-31 renal, this compound showed a TGI of more than 100 µM.
Turning to `CC(C)COC(=O)N1N=NC2C3OC(CC3=O)C21` (stereo unspecified), the TGI with OVCAR-8 ovarian, in the experiment on LOX IMVI melanoma, with SF-295 CNS, in the experiment with SK-MEL-2 melanoma, with SF-539 CNS and in the experiment with OVCAR-4 ovarian was more than 100 µM each time. Besides, the TGI with UACC-62 melanoma and with UO-31 renal was more than 100 µM throughout.
`C=C1C(=O)O[C@H]2[C@H]1CC/C(CNC(=O)/C=C/c1cccc(OC)c1)=C\CC[C@@]1(C)O[C@@H]21`: the GI50 was 2.19 µM with OVCAR-8 ovarian; 1.28 µM in the experiment with LOX IMVI melanoma; 5.54 µM in the experiment with SF-295 CNS; 1.47 µM in the experiment on SK-MEL-2 melanoma; 1.27 µM in the experiment with SF-539 CNS; 1.69 µM in the experiment with OVCAR-4 ovarian. In addition, the GI50 in the experiment with UACC-62 melanoma was 1.43 µM; in the experiment on DU-145 prostate it was 1.19 µM; with UO-31 renal it was 1.29 µM. Besides, the TGI in the experiment on OVCAR-8 ovarian turned out to be 8.07 µM; in the experiment on LOX IMVI melanoma, 2.63 µM; with SF-295 CNS it was 19.3 µM; with SK-MEL-2 melanoma, 3.31 µM; with SF-539 CNS, 2.98 µM; in the experiment on OVCAR-4 ovarian, 4.79 µM. Further, the TGI is 2.92 µM in the experiment on UACC-62 melanoma, 2.49 µM with DU-145 prostate and 2.61 µM in the experiment with UO-31 renal.
`O=C1O[C@H](C(Cl)(Cl)Cl)N2CCCC12` (stereo partly specified): the TGI in the experiment with OVCAR-8 ovarian, with LOX IMVI melanoma, in the experiment on SF-295 CNS, in the experiment on SK-MEL-2 melanoma, in the experiment on SF-539 CNS and in the experiment with OVCAR-4 ovarian was more than 100 µM each time. In addition, the TGI with UACC-62 melanoma and with UO-31 renal was more than 100 µM each time.
